{"source": "patent US5006342A", "about": "“Resilient transdermal drug delivery device” (Cygnus Corporation, priority 1989, dated 1991)", "key": {"[1]": {"assay": "in vitro release of E2 (reciprocating dissolution apparatus, USP Test Dissolution Method V, 32° C.)", "conditions": "Example 1, 7-layer system, over 7 days", "method": "The in vitro release of E2 from the 7-layer system was determined, using a reciprocating dissolution apparatus (USP Test Dissolution Method V) at 32° C., to be square-root-time-dependent over 7 days with a total cumulative release of 190 μg/cm^2 in 7 days (the flux was 14.66 μg/cm^2 /hr^1/2). The laminated composite was translucent and resilient, allowing the system to stretch with the stretching of skin when worn."}, "[2]": {"assay": "E2 in vitro steady-state skin flux across human cadaver skin (diffusion cells, 32° C.)", "format": "in vitro ADME"}, "[3]": {"assay": "wearing study, E2 plasma levels in postmenopausal female subjects", "format": "in vivo, postmenopausal female subjects (human)", "conditions": "postmenopausal females"}}}
{"compound": "C[C@]12CC[C@@H]3c4ccc(O)cc4CC[C@H]3[C@@H]1CC[C@@H]2O", "note": "[Example E2, estradiol]", "values": [{"measurement": "in vitro release flux of E2 (square-root-time)", "setting": "[1]", "result": 14.66, "unit": "μg/cm^2 /hr^1/2"}, {"measurement": "time dependence of in vitro release of E2", "setting": "[1]", "result": "square-root-time-dependent"}, {"measurement": "In vitro skin flux", "setting": "[2]; Example 2, 7-layer, 14% PGML in L1", "result": -0.15, "unit": "μg/cm^2 /hr"}, {"measurement": "In vitro skin flux", "setting": "[2]; Example 3, 7-layer, Medifilm 810, E2 2.0% in L1 and 5.5% in L2", "result": "approximately 0.14 μg/cm^2 /hr"}, {"measurement": "E2 skin flux", "setting": "[2]; Example 4, 5-layer laminate (prepared similarly to Example 1)", "result": -0.12, "unit": "μg/cm^2 /hr"}, {"measurement": "E2 skin flux", "setting": "[2]; Example 5, 5-layer laminate (prepared similarly to Example 2)", "result": "~ 0.15 μg/cm^2 /hr"}, {"measurement": "flux from the 5-layer device", "setting": "[2]; Examples 6 and 7, 5-layer device, Medifilm 810", "result": -0.14, "unit": "μg/cm^2 /hr"}, {"measurement": "flux from the 5-layer device", "setting": "[2]; Examples 8 and 9, 5-layer device, Medifilm 910", "result": -0.11, "unit": "μg/cm^2 /hr"}, {"measurement": "constant plasma levels", "setting": "[3]; Example 3, 30 cm^2 laminate, four day wearing, 5760 min", "result": "~32", "unit": "pg/mL"}, {"measurement": "constant plasma concentration of E2", "setting": "[3]; Example 5, 30 cm^2 laminate, 7 day wearing", "result": "~45", "unit": "pg/mL"}, {"measurement": "concentration at 96 h", "setting": "[3]; human, plasma, topical or ocular, Example 3, 20 cm^2 laminate, four day wearing, read-out: constant plasma levels", "result": "~0.025", "unit": "ng/mL"}, {"measurement": "concentration at 168 h", "setting": "[3]; human, plasma, topical or ocular, Example 5, 20 cm^2 laminate, 7 day wearing, read-out: constant plasma concentration of E2", "result": "~0.03", "unit": "ng/mL"}]}
